Laboratory results reported in patent US20250353891A1 (MEDIMMUNE LIMITED, priority 2022, published 2025).
Starred links: 1 amine or outer side, 2 acyl side, 3 side chain; linkers in the order of their positions; H or OH if unused. Non-standard residues stand in square brackets, D forms with d. Residues, ends and D or L forms follow the SMILES beside them. Groups on a side chain read outwards from the residue. *: point of attachment. C18 diacid = O=C(O)CCCCCCCCCCCCCCCCC(=O)*; γGlu = O=C(O)[C@H](CCC(=O)[*:2])N[*:1]; αMeF = C[C@](N)(Cc1ccccc1)C(=O)O; AEEA = NCCOCCOCC(=O)O; Aib = CC(C)(N)C(=O)O

Experiments:
[1] = target: human glucagon receptor (hGCGR) (Homo sapiens, UniProt P47871); experiment: cAMP production (HTRF) in CHO cells expressing hGCGR; format: cell-based; design: expressed in transfected cells; conditions: Table 7, peptides modified at position 20; cAMP in CHO hGCGR cells; geometric mean; read-out: hGluc-R EC50
human glucagon receptor (hGCGR), sequence (P47871 26-477): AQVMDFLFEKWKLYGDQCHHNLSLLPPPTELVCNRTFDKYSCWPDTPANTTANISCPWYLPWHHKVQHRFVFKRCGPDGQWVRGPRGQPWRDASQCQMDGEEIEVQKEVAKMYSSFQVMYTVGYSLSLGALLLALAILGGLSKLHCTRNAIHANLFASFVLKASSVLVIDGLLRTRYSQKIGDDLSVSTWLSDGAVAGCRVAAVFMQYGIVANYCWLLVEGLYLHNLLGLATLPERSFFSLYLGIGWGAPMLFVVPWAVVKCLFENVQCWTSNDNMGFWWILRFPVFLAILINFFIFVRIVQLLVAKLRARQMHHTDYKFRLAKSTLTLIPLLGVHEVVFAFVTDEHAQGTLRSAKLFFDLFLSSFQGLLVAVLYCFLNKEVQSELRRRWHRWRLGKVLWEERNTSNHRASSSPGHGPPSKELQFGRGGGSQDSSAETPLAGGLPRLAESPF
In short: (§1)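 Read-out: HTRF cAMP (anti-cAMP cryptate donor, cAMP-d2 acceptor in conjugate/lysis buffer), converted to % Delta F and fitted by 4-parameter logistic for EC50. Cell densities were 1×10^5 cells/mL (hGLP-1R) or 2×10^5 cells/mL (hGCGR). Stimulation lasted 30 min at room temperature.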

[2] = target: human GLP-1 receptor (hGLP-1R) (Homo sapiens, UniProt P43220); experiment: cAMP production (HTRF) in CHO cells expressing hGLP-1R; format: cell-based; design: expressed in transfected cells; conditions: for EC50: Table 7, peptides modified at position 20, cAMP in CHO hGLP-1R cells, geometric mean, read-out: hGLP-1R EC50; for % Relative Potency Ratio: Table 7, % GLP-1R activity relative to GLP-1 / % GlucR activity relative to glucagon
human GLP-1 receptor (hGLP-1R), sequence (P43220 24-463): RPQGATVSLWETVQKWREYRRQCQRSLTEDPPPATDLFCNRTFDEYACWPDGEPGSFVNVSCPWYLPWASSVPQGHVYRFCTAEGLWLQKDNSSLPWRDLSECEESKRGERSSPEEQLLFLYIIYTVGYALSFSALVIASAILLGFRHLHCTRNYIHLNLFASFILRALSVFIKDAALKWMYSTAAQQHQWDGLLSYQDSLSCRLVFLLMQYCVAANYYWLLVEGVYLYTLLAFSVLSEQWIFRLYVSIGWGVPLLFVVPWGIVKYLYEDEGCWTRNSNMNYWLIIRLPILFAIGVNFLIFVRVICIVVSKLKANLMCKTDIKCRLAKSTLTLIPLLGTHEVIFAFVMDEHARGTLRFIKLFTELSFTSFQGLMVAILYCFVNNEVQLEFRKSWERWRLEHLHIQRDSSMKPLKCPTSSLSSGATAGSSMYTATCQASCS
In short: as §1

SMILES	EC50 [1] [nM]	EC50 [2] [nM]	% Relative Potency Ratio [2]
CC[C@H](C)[C@H](NC(=O)[C@H](Cc1c[nH]c2ccccc12)NC(=O)[C@H](CCC(N)=O)NC(=O)[C@@H](NC(=O)[C@H](Cc1ccccc1)NC(=O)[C@H](CC(=O)O)NC(=O)[C@H](CCCCNC(=O)COCCOCCNC(=O)COCCOCCNC(=O)CC[C@H](NC(=O)CCCCCCCCCCCCCCCCC(=O)O)C(=O)O)NC(=O)[C@H](C)NC(=O)[C@H](C)NC(=O)[C@H](CCCNC(=N)N)NC(=O)[C@@H](NC(=O)[C@H](CC(=O)O)NC(=O)[C@H](CC(C)C)NC(=O)[C@](C)(Cc1ccccc1)NC(=O)[C@H](CCCCN)NC(=O)[C@H](CO)NC(=O)[C@@H](NC(=O)[C@H](CC(=O)O)NC(=O)[C@H](CO)NC(=O)[C@@H](NC(=O)[C@H](Cc1ccccc1)NC(=O)[C@@H](NC(=O)CNC(=O)[C@H](CCC(N)=O)NC(=O)C(C)(C)NC(=O)[C@@H](N)Cc1c[nH]cn1)[C@@H](C)O)[C@@H](C)O)C(C)C)[C@@H](C)O)C(C)C)C(=O)N[C@@H](C)C(=O)N[C@@H](CC(N)=O)C(=O)N[C@H](C(N)=O)[C@@H](C)O [Peptide 308] (H-H[Aib]QGTFTSDVSK[αMeF]LDTRAAK([AEEA-AEEA-γGlu-C18 diacid])DFVQWIANT-NH2; N-terminus assumed)	1.72	0.0275	123.4
CC[C@H](C)[C@H](NC(=O)[C@H](Cc1c[nH]c2ccccc12)NC(=O)[C@H](CCC(N)=O)NC(=O)[C@@H](NC(=O)[C@H](Cc1ccccc1)NC(=O)[C@H](CC(=O)O)NC(=O)[C@H](CCCCNC(=O)COCCOCCNC(=O)COCCOCCNC(=O)CC[C@H](NC(=O)CCCCCCCCCCCCCCCCC(=O)O)C(=O)O)NC(=O)[C@H](C)NC(=O)[C@H](C)NC(=O)[C@H](CCCNC(=N)N)NC(=O)[C@H](CCC(=O)O)NC(=O)[C@H](CC(=O)O)NC(=O)[C@H](CC(C)C)NC(=O)[C@](C)(Cc1ccccc1)NC(=O)[C@H](CCCCN)NC(=O)[C@H](CO)NC(=O)[C@@H](NC(=O)[C@H](CC(=O)O)NC(=O)[C@H](CO)NC(=O)[C@@H](NC(=O)[C@H](Cc1ccccc1)NC(=O)[C@@H](NC(=O)CNC(=O)[C@H](CCC(N)=O)NC(=O)C(C)(C)NC(=O)[C@@H](N)Cc1c[nH]cn1)[C@@H](C)O)[C@@H](C)O)C(C)C)C(C)C)C(=O)N[C@@H](C)C(=O)N[C@@H](CC(N)=O)C(=O)N[C@H](C(N)=O)[C@@H](C)O [Peptide 309]	17.4	0.0706	486.8
CC(C)C[C@H](NC(=O)[C@H](Cc1c[nH]c2ccccc12)NC(=O)[C@H](CCC(N)=O)NC(=O)[C@@H](NC(=O)[C@H](Cc1ccccc1)NC(=O)[C@H](CC(=O)O)NC(=O)[C@H](CCCCNC(=O)COCCOCCNC(=O)COCCOCCNC(=O)CC[C@H](NC(=O)CCCCCCCCCCCCCCCCC(=O)O)C(=O)O)NC(=O)[C@H](C)NC(=O)[C@H](C)NC(=O)[C@H](CCCNC(=N)N)NC(=O)[C@H](CO)NC(=O)[C@H](CC(=O)O)NC(=O)[C@H](CC(C)C)NC(=O)[C@](C)(Cc1ccccc1)NC(=O)[C@H](CCCCN)NC(=O)[C@H](CO)NC(=O)[C@@H](NC(=O)[C@H](CC(=O)O)NC(=O)[C@H](CO)NC(=O)[C@@H](NC(=O)[C@H](Cc1ccccc1)NC(=O)[C@@H](NC(=O)CNC(=O)[C@H](CCC(N)=O)NC(=O)C(C)(C)NC(=O)[C@@H](N)Cc1c[nH]cn1)[C@@H](C)O)[C@@H](C)O)C(C)C)C(C)C)C(=O)N[C@@H](CCC(=O)O)C(=O)N[C@@H](C)C(=O)NCC(=O)NCC(N)=O [Peptide 310]	1.84	0.0564	64.4

Compounds with a lower EC50 [1], results first:

EC50 [1] [nM]	EC50 [2] [nM]	% Relative Potency Ratio [2]	SMILES
0.155	0.211	1.5	CC[C@H](C)[C@H](NC(=O)[C@H](Cc1c[nH]c2ccccc12)NC(=O)[C@H](CCC(N)=O)NC(=O)[C@@H](NC(=O)[C@H](Cc1ccccc1)NC(=O)[C@H](CC(=O)O)NC(=O)[C@H](CCCCNC(=O)COCCOCCNC(=O)COCCOCCNC(=O)CC[C@H](NC(=O)CC[C@H](NC(=O)CCCCCCCCCCCCCCCCCCC(=O)O)C(=O)O)C(=O)O)NC(=O)[C@H](C)NC(=O)[C@H](C)NC(=O)[C@H](CCCNC(=N)N)NC(=O)[C@H](CO)NC(=O)[C@H](CC(=O)O)NC(=O)[C@H](CC(C)C)NC(=O)[C@](C)(Cc1ccccc1)NC(=O)[C@H](CCCCN)NC(=O)[C@H](CO)NC(=O)[C@@H](NC(=O)[C@H](CC(=O)O)NC(=O)[C@H](CO)NC(=O)[C@@H](NC(=O)[C@H](Cc1ccccc1)NC(=O)[C@@H](NC(=O)CNC(=O)[C@H](Cc1c[nH]cn1)NC(=O)C(C)(C)NC(=O)[C@@H](N)Cc1c[nH]cn1)[C@@H](C)O)[C@@H](C)O)C(C)C)C(C)C)C(=O)N[C@@H](C)C(=O)N[C@@H](CC(N)=O)C(=O)N[C@H](C(N)=O)[C@@H](C)O [Peptide 305]
0.775	0.0472	32.5	CC[C@H](C)[C@H](NC(=O)[C@H](Cc1c[nH]c2ccccc12)NC(=O)[C@H](CCC(=O)O)NC(=O)[C@@H](NC(=O)[C@H](Cc1ccccc1)NC(=O)[C@H](CC(=O)O)NC(=O)[C@H](CCCCNC(=O)COCCOCCNC(=O)COCCOCCNC(=O)CC[C@H](NC(=O)CCCCCCCCCCCCCCCCC(=O)O)C(=O)O)NC(=O)[C@H](C)NC(=O)[C@H](C)NC(=O)[C@H](CCCNC(=N)N)NC(=O)[C@H](CO)NC(=O)[C@H](CC(=O)O)NC(=O)[C@H](CC(C)C)NC(=O)[C@](C)(Cc1ccccc1)NC(=O)[C@H](CCCCN)NC(=O)[C@H](CO)NC(=O)[C@@H](NC(=O)[C@H](CC(=O)O)NC(=O)[C@H](CO)NC(=O)[C@@H](NC(=O)[C@H](Cc1ccccc1)NC(=O)[C@@H](NC(=O)CNC(=O)[C@H](CCC(N)=O)NC(=O)C(C)(C)NC(=O)[C@@H](N)Cc1c[nH]cn1)[C@@H](C)O)[C@@H](C)O)C(C)C)C(C)C)C(=O)N[C@@H](C)C(=O)N[C@@H](CC(N)=O)C(=O)N[C@H](C(N)=O)[C@@H](C)O [Peptide 306]
1.13	0.0222	100.5	CC[C@H](C)[C@H](NC(=O)[C@H](Cc1c[nH]c2ccccc12)NC(=O)[C@H](CCCNC(=N)N)NC(=O)[C@@H](NC(=O)[C@H](Cc1ccccc1)NC(=O)[C@H](CC(=O)O)NC(=O)[C@H](CCCCNC(=O)COCCOCCNC(=O)COCCOCCNC(=O)CC[C@H](NC(=O)CCCCCCCCCCCCCCCCC(=O)O)C(=O)O)NC(=O)[C@H](C)NC(=O)[C@H](C)NC(=O)[C@H](CCCNC(=N)N)NC(=O)[C@H](CO)NC(=O)[C@H](CC(=O)O)NC(=O)[C@H](CC(C)C)NC(=O)[C@](C)(Cc1ccccc1)NC(=O)[C@H](CCCCN)NC(=O)[C@H](CO)NC(=O)[C@@H](NC(=O)[C@H](CC(=O)O)NC(=O)[C@H](CO)NC(=O)[C@@H](NC(=O)[C@H](Cc1ccccc1)NC(=O)[C@@H](NC(=O)CNC(=O)[C@H](CCC(N)=O)NC(=O)C(C)(C)NC(=O)[C@@H](N)Cc1c[nH]cn1)[C@@H](C)O)[C@@H](C)O)C(C)C)C(C)C)C(=O)N[C@@H](C)C(=O)N[C@@H](CC(N)=O)C(=O)N[C@H](C(N)=O)[C@@H](C)O [Peptide 307]
